Measured values as given in patent US8962666B2, “Method for improving cartilage repair and/or preventing cartilage degeneration in a joint” (Maastricht University, priority 2009, dated 2015).

Experiments:
[1] = Parecoxib concentration in synovial joint fluid after Bio-Gel injection in Hoffa's fat pad (HPLC); type: in vivo, Wistar rats; settings: 0.1 ml Bio-Gel containing 500 μg Parecoxib in Hoffa's fat pad
Description: After induction of general anaesthesia, both knees of Wistar rats were shaved and prepared for aseptic surgery. The centre of the patella tendon was identified. A 28 G needle with a 1 ml syringe was used to penetrate the centre patella tendon. Directly after the patella tendon is penetrated and 0.1 ml of the Bio-Gel containing 500 μg of Parecoxib was injected in Hoffa's fad pad. Directly after injection, 1 day, 5 days, 10 days and 30 days after injection the rats were sacrificed.
The concentration of parecoxib in the SJF was examined using a high-performance liquid chromatography

[2] = system: cartilage only defect on medial femoral condyles; assay: Goat cartilage defect repair (MACI / microfracture) with Bio-Gel containing Parecoxib in Hoffa's fatpad; type: in vivo, Dutch milk goats; settings: controlled release from Hoffa's fatpad; summary statement
Description: Surgical procedure: Skeletally mature Dutch milk goats were used for this study. During the first operation, both knee joints of the goats were opened using a medial parapatellar incision. Using a 8 mm in diameter dermal punch a cartilage only defect was created on both medial femoral condyles. The cartilage of both sides was minced and after an overnight collagenase treatment, cells were isolated and expanded in monolayer. […] Consequently these cells were seeded and allowed to attach in a collagen carrier for 24 hrs as described earlier as Matrix-supported Autologous Chondrocyte Implantation (MACI). Hereafter a second operation was performed. The knee joints were opened and one the cartilage defect of one knee joint was repaired using the MACI method. The defect in the other knee joint was repaired using microfracturing as described by […] et al. In 10 goats Hoffa's fatpad was injected (as described earlier) with a Bio-Gel containing 1.5 mg of Parecoxib, in 10 goats Hoffa's fatpad was injected (as described earlier) with a Bio-Gel only, and in 10 goats no injection was performed. Goats were allowed full-weight bearing after both surgical procedures. Histological evaluation: 3 months after the second operation, goats were sacrificed. […] Mankin scores for OA grading and O'Driscoll scores for cartilage repair were scored by 2 blinded individuals.

[3] = system: anterior cruciate ligament-transected (ACLT) knees; settings: cited from earlier work
[4] = intra-articular parecoxib injection

With CCC(=O)NS(=O)(=O)c1ccc(-c2c(-c3ccccc3)noc2C)cc1 [Parecoxib] the “intra-articular level of parecoxib” value ([1]; after 30 days follow) was “remained stable”, the “time of maximum parecoxib level in the SJF” value ([1]; time after injection) was 1 days and the “cartilage repair using MACI and microfracturing” value [2] was “significantly improved”. For the same molecule, the cartilage degeneration ([3]; ACLT knees, intra-articular injection) was “significant inhibition”, the “effect on cartilage and synovium of normal knees” value ([3]; intra-articular parecoxib alone, naive rats) was “did not have any effect” and the “glutamate and aspartate levels” value [3, 4] was “reduced”. For the same molecule, the synovial inflammation [3, 4] was “suppressed”.
